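Grown in 96-well plates, cells were treated for 48 hours with each compound at five concentrations. Insufficient inhibition: endpoint recorded as highest concentration tested. At the GI50, growth is halved.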 Active and inactive are the calls of the source. No stated cut-off is given here; in the data, active = GI50 up to about 1.1 µM and inactive = higher.
Tests used:
Experiment in all cases: NCI tumour cell line growth inhibition, 48 h
[1] = tested on: MCF7
[2] = tested on: NCI-H23
[3] = tested on: LOX IMVI
[4] = tested on: Malme-3M
[5] = tested on: 786-0
[6] = tested on: HCC 2998
[7] = tested on: MDA-MB-231
[8] = tested on: SK-OV-3
[9] = tested on: HOP-62
[10] = tested on: A549
[11] = tested on: OVCAR-3
[12] = tested on: RPMI-8226
[13] = tested on: SK-MEL-28
[14] = tested on: HCT-116
[15] = tested on: CAKI-1
[16] = tested on: SR
[17] = tested on: Hs-578T
[18] = tested on: SF-268
[19] = tested on: NCI-H226
[20] = tested on: UACC-62

Measured: GI50

O=C1c2cc3c(cc2CC12Cc1ccc4c(c1C2=O)CCCC4)CCCC3 (centres undefined)
inactive: [1] > 100 µM | [2] 79.1 µM | [3] > 100 µM | [4] 21.5 µM | [5] 20.1 µM | [6] > 100 µM | [7] 48.3 µM | [8] 32.8 µM | [9] 50.6 µM | [10] 82.6 µM | [11] 21.1 µM | [12] > 100 µM | [13] > 100 µM | [14] 27.7 µM | [15] > 100 µM | [16] > 100 µM | [17] 61.7 µM | [18] 50.2 µM

O=C(c1cccs1)N(C(=O)N1CCN(c2ccccc2)CC1)S(=O)(=O)c1ccccc1
inactive: [1] 27.4 µM | [2] 24 µM | [4] 19.8 µM | [5] 23.2 µM | [6] 40.1 µM | [7] 23.1 µM | [8] 46.6 µM | [9] 29.6 µM | [10] 32.8 µM | [11] 32.2 µM | [13] 22.4 µM | [14] 20.2 µM | [19] 19.8 µM | [15] 21.2 µM | [16] 21.8 µM | [17] 23.8 µM | [18] 27.3 µM | [20] 17.6 µM

C/C=C1/CN2CCC34c5ccccc5N(C)C23C2CC1C4(C(=O)OC)C(OC(C)=O)O2 (centres undefined)
inactive: [1] > 100 µM | [2] > 100 µM | [3] > 100 µM | [5] > 100 µM | [6] > 100 µM | [7] > 100 µM | [8] > 100 µM | [9] > 100 µM | [10] > 100 µM | [11] > 100 µM | [12] > 100 µM | [13] > 100 µM | [14] > 100 µM | [19] > 100 µM | [15] > 100 µM | [16] > 100 µM | [17] > 100 µM | [18] > 100 µM | [20] > 100 µM

Cc1cccc2c1CC1(Cc3c(C)cccc3C1=O)C2=O
inactive: [1] > 100 µM | [2] > 100 µM | [3] > 100 µM | [4] > 100 µM | [5] > 100 µM | [6] > 100 µM | [7] > 100 µM | [8] > 100 µM | [9] > 100 µM | [10] > 100 µM | [11] > 100 µM | [12] > 100 µM | [13] > 100 µM | [14] > 100 µM | [15] > 100 µM | [16] > 100 µM | [17] > 100 µM | [18] > 100 µM

CON(C)C(=O)C1CCCO1 (centres undefined)
inactive: [1] > 100 µM | [2] 18.5 µM | [3] > 100 µM | [5] > 100 µM | [7] > 100 µM | [8] > 100 µM | [9] > 100 µM | [10] > 100 µM | [11] > 100 µM | [12] 68.7 µM | [13] > 100 µM | [14] > 100 µM | [19] > 100 µM | [15] > 100 µM | [16] > 100 µM | [17] > 100 µM | [18] > 100 µM | [20] > 100 µM

c1ccc(C2=NCCc3cc4c(cc32)OCO4)cc1
inactive: [1] > 100 µM | [2] > 100 µM | [3] > 100 µM | [4] > 100 µM | [5] > 100 µM | [6] > 100 µM | [7] > 100 µM | [8] > 100 µM | [9] > 100 µM | [10] > 100 µM | [11] > 100 µM | [13] > 100 µM | [15] > 100 µM | [16] > 100 µM | [17] > 100 µM | [18] > 100 µM | [20] > 100 µM

COc1cc2c3c(c1O)-c1c(ccc(OC)c1OC)CC3N(C)CC2 (centres undefined)
inactive: [1] > 100 µM | [2] > 100 µM | [3] > 100 µM | [5] > 100 µM | [7] > 100 µM | [8] > 100 µM | [10] > 100 µM | [11] > 100 µM | [12] > 100 µM | [14] > 100 µM | [19] > 100 µM | [15] > 100 µM | [16] > 100 µM | [17] > 100 µM | [18] > 100 µM | [20] > 100 µM

CCCC#CCOC(=O)c1cc([N+](=O)[O-])cc([N+](=O)[O-])c1
inactive: [1] > 100 µM | [2] > 100 µM | [3] > 100 µM | [4] 19.9 µM | [5] > 100 µM | [6] > 100 µM | [7] > 100 µM | [8] > 100 µM | [9] > 100 µM | [10] > 100 µM | [11] > 100 µM | [12] > 100 µM | [13] > 100 µM | [14] > 100 µM | [15] > 100 µM | [16] > 100 µM | [17] > 100 µM | [18] > 100 µM | [20] > 100 µM

O=C(O)C(O)c1ccc(F)cc1 (centres undefined)
inactive: [1] > 100 µM | [2] > 100 µM | [3] > 100 µM | [4] > 100 µM | [5] > 100 µM | [7] > 100 µM | [8] > 100 µM | [9] > 100 µM | [10] > 100 µM | [11] > 100 µM | [12] > 100 µM | [13] > 100 µM | [14] > 100 µM | [15] > 100 µM | [16] > 100 µM | [17] > 100 µM | [18] > 100 µM | [20] > 100 µM

OCC(O)COCn1cc(Cn2ncc3c(NCc4ccccc4)ncnc32)nn1 (centres undefined)
inactive: [1] > 100 µM | [2] > 100 µM | [3] > 100 µM | [5] > 100 µM | [6] > 100 µM | [7] > 100 µM | [8] > 100 µM | [9] > 100 µM | [10] > 100 µM | [11] > 100 µM | [12] > 100 µM | [13] > 100 µM | [14] > 100 µM | [19] > 100 µM | [15] > 100 µM | [16] > 100 µM | [17] 25 µM | [18] 17.7 µM | [20] > 100 µM

Cc1cc2cc3c(C)cc(=O)oc3c(C)c2o1 [TRIOXSALEN]
inactive: [1] > 100 µM | [2] > 100 µM | [3] > 100 µM | [4] > 100 µM | [5] > 100 µM | [6] > 100 µM | [7] > 100 µM | [9] > 100 µM | [10] > 100 µM | [11] > 100 µM | [12] > 100 µM | [13] > 100 µM | [14] > 100 µM | [19] > 100 µM | [15] > 100 µM | [16] > 100 µM | [17] > 100 µM | [18] > 100 µM | [20] > 100 µM
